Earlier results on 4 molecules are cited in paper PMC8513935.

Data set [1] can be described thus: log P octanol/water from commercial databases, averaged (the ESI). The settings on record: Octanol (wet), 25 C.
A short description of data set [2]: experimental, compiled by the authors from the literature (the ESI cites the sources).
Data set [3] is described as follows: derived by the authors as gas->solvent minus gas->water (a hypothetical dry solvent; the ESI), not a two-phase measurement.

As to `CCCCc1ccccc1`, the log K of transfer, water to solvent in data set [1] was 4.26 log10 K; in data set [3] (Ethanol, 25 C), 3.91 log10 K; in data set [3] (Hexadecane, 25 C), 4.44 log10 K; in data set [3] (Methanol, 25 C), 3.99 log10 K; in data set [3] (Propan-2-ol, 25 C), 4.06 log10 K; in data set [3] (Tetrahydrofuran, 25 C), 5.09 log10 K. Further, the log K of transfer, gas to solvent was 4.2 log10 K in data set [2] (Ethanol, 25 C); 4.73 log10 K in data set [2] (Hexadecane, 25 C); 4.28 log10 K in data set [2] (Methanol, 25 C); 4.35 log10 K in data set [2] (Propan-2-ol, 25 C); 5.38 log10 K in data set [2] (Tetrahydrofuran, 25 C); 0.29 log10 K in data set [2] (Water, 25 C).
As to `CCc1ccc(O)cc1`, the log K of transfer, water to solvent in data set [1] was 2.58 log10 K; in data set [3] (1,2-Dichloroethane, 25 C) it was 1.67 log10 K; in data set [3] (CCl4, 25 C), 0.86 log10 K; in data set [3] (Chlorobenzene, 25 C), 1.3 log10 K; in data set [3] (Chloroform, 25 C), 1.47 log10 K; in data set [3] (Dichloromethane, 25 C), 1.66 log10 K. Moreover, the log K of transfer, water to solvent in data set [3] (Hexadecane, 25 C) was 0.237 log10 K; in data set [3] (Hexane, 25 C) it was 0.29 log10 K; in data set [3] (Perfluoroalkane, 25 C) it was -1.33 log10 K. Besides, the log K of transfer, gas to solvent in data set [2] (1,2-Dichloroethane, 25 C) is 6.17 log10 K; in data set [2] (CCl4, 25 C), 5.36 log10 K; in data set [2] (Chlorobenzene, 25 C), 5.8 log10 K; in data set [2] (Chloroform, 25 C), 5.97 log10 K; in data set [2] (Dichloromethane, 25 C), 6.16 log10 K; in data set [2] (Hexadecane, 25 C), 4.73 log10 K. In addition, the log K of transfer, gas to solvent was 4.79 log10 K in data set [2] (Hexane, 25 C); 3.17 log10 K in data set [2] (Perfluoroalkane, 25 C); 4.5 log10 K in data set [2] (Water, 25 C).
As for `CN1CCCCC1`, the log K of transfer, water to solvent in data set [1] is 1.29 log10 K; in data set [3] (Chloroform, 25 C) it was 1.36 log10 K; in data set [3] (Hexadecane, 25 C) it was 0.48 log10 K. Moreover, the log K of transfer, gas to solvent in data set [2] (Chloroform, 25 C) was 4.21 log10 K; in data set [2] (Hexadecane, 25 C), 3.33 log10 K; in data set [2] (Water, 25 C), 2.85 log10 K.
In the case of `CCCCCCCCCCCCCCCCO`, the log K of transfer, water to solvent was 7.32 log10 K in data set [1]; 7.84 log10 K in data set [3] (Decan-1-ol, 25 C); 7.61 log10 K in data set [3] (Di-n-butyl ether, 25 C); 7.89 log10 K in data set [3] (Diethyl Ether, 25 C); 6.63 log10 K in data set [3] (Hexadecane, 25 C); 7.92 log10 K in data set [3] (Hexan-1-ol, 25 C). Moreover, the log K of transfer, water to solvent in data set [3] (Octan-1-ol(dry), 25 C) is 7.88 log10 K; in data set [3] (Propan-2-ol, 25 C) it was 8.03 log10 K. The log K of transfer, gas to solvent in data set [2] (Decan-1-ol, 25 C) was 9.86 log10 K; in data set [2] (Di-n-butyl ether, 25 C) it was 9.63 log10 K; in data set [2] (Diethyl Ether, 25 C), 9.91 log10 K; in data set [2] (Hexadecane, 25 C), 8.65 log10 K; in data set [2] (Hexan-1-ol, 25 C), 9.93 log10 K; in data set [2] (Octan-1-ol, 25 C), 9.9 log10 K. The log K of transfer, gas to solvent in data set [2] (Propan-2-ol, 25 C) was 10 log10 K; in data set [2] (Water, 25 C), 2.02 log10 K.
